# US20130331764A9, “ANTICANCER AGENT DELIVERY SYSTEM USING pH-SENSITIVE METAL NANOPARTICLES” (priority 2010, published 2013)
# System: Breast cancer cells
# Experiment: Drug test: intranuclear delivery of doxorubicin by nuclear yellow-reddish fluorescence (fluorescence microscopy)
# Assay type: cell-based
# Method: In this Example, the anticancer drug doxorubicin was employed. Doxorubicin works to induce cell death by intercalating DNA. It emits yellow-reddish fluorescence at near 600 nm. When the conjugates penetrate into cancer cells, doxorubicin is dissociated from the gold nanoparticles by hydrolysis under an acidic condition and translocates into the nucleus which thus emits yellow-reddish fluorescence.
# Breast cancer cells in test groups were incubated with the pH-sensitive gold nanoparticle-doxorubicin conjugates to induce the internalization of the conjugate (middle panel, FIG. 6).
# For comparison, cells were incubated with doxorubicin-free pH-sensitive gold nanoparticles (left panel, FIG. 6) and with doxorubicin alone (right panel, FIG. 6) under the same condition.
# The intranuclear delivery of doxorubicin can be qualitatively analyzed in terms of nuclear yellow-reddish fluorescence as measured by fluorescence microscopy.
smiles,measurement,setting,value
COc1cccc2c1C(=O)c1c(O)c3c(c(O)c1C2=O)C[C@@](O)(C(=O)CO)C[C@@H]3O[C@H]1C[C@H](N)[C@H](O)[C@H](C)O1 [doxorubicin],nuclear fluorescence of doxorubicin,3 hours of incubation,the fluorescence was intensified
same,nuclear fluorescence of doxorubicin,one hour of incubation,started to exhibit fluorescence
